Where two headings read alike, the source gives them in different places.
Legend:
[1] = molecular target: T1, Sphingomyelin Synthase 2 (SMS2) (Homo sapiens, UniProt Q8NHU3); assay: In vitro inhibition of sphingomyelin synthase 2, HPLC fluorogenic quantitative detecting method (C6-NBD-ceramide to C6-NBD-SM, SMS2 high-expressed insect cell homogenate); format: biochemical; details: for inhibition at 10 µM / inhibition at 5 µM / inhibition at 50 µM: read-out: inhibition rate; for IC50: read-out: SMS2 Median Inhibitory Concentration IC50
T1 construct: made in house; used as homogenate
T1 sequence (Q8NHU3 1-365): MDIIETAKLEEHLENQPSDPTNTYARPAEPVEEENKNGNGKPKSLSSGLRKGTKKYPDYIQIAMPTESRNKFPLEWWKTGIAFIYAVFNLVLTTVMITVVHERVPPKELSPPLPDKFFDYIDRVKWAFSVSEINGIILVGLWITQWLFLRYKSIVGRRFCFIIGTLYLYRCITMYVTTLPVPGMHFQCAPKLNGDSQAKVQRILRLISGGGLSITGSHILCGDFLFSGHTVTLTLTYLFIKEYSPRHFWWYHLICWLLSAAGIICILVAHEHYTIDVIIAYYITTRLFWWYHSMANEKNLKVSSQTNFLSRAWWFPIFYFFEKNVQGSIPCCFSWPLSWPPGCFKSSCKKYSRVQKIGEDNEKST
Text: The second aim of the present invention is to show the use of 2-alkoxy benzene formyl arylamines in preparing SMS small-molecule inhibitors. This invention evaluate SMS inhibitory activity of 2-alkoxy benzene formyl arylamines as scheme I through HPLC fluorogenic quantitative detecting method reported (Xiaodong Deng; Hong Sun; et al. Analytical Letters, 2012, 45:12, 1581-1589), which can make it possible to calculate the catalytic activity difference of SMS treated with inhibitors or not through content changes of NBD-ceramide and NBD-sphingomyelin.
9. The organic solvents were purchased from Shanghai Sinopharm Reagent Company; methanol is of HPLC grade; water is ultrapure water filtrated by Milli-Q pump and deionized and ultrafiltrated by 0.22 μm ultrafiltration membrane. Other biological supplies are purchased in domestic companies. 10. Preparation of SMS homogenate extraction buffer (Buffer1): (50 mM Tris hydrochloride, pH 7.4, 5% anhydrous sucrose, 1 mM ethylenediaminetetraacetic acid) 1.2114 g tris(hydroxymethyl)aminomethane hydrochloride (Tris-HCl) was dissolved in 100 ml distilled water. Then 84 ml 0.1 mol/L hydrochloric acid was added. Constant volume to 200 ml. Finally, 10 g sucrose and 58.45 mg EDTA were dissolved in the mixture. 11. Preparation of SMS test buffer […]: (100 mM Hepes, 30 mM MnCl2, 3% fatty acid free BSA): 1.1916 g 4-(2-hydroxyethyl)-1-peperazineethanesulfonic acid (Hepes), 0.2969 g MnCl2.4H2O and 0.3 g fatty acid free bovine serum albumin were dissolved in distilled water then constant volume to 50 ml. 12. Preparation of under tested compound solution: To each accurate weighed compound for 1˜2 mg, an appropriate amount of DMSO was added to formulate a stock solution of 6 mM precisely. To a certain volume of the DMSO stock solution of the test compound, the appropriate volume of DMSO was added to dilute the solution to the desired concentration. 13. SMS2 high-expressed insect cell homogenate was prepared by Xu Yanhui group from Institutes of Biomedical Sciences, Fudan University. Part 1 Activity Assay for Inhibition of 2-Alkoxy-Benzoyl Aromatic Amines to Sphingomyelin Synthase 2
250 μL tri-distilled water, 30 μL Buffer2, 4 μL SMS2 high-expressed insect cell homogenate (total protein content is 0.5 μg/μL) and 10 μL DMSO or DMSO solution of under tested compound were added to 1.5 mL eppendorf tube, vortex mixed for 30 seconds and then incubated in a 37° C. water bath for 0.5 h. 3 μL ethanol solution of DMPC (40 mM) and 3 μL ethanol solution of C6-NBD-Ceramide (1.16 mM) were added, vortex mixed for 30 seconds, and then incubate in a 37° C. water bath for 2.0 hours. To it 600 μL anhydrous ethanol was added vortex mixed for 1 minute and centrifuged 10 minutes in 10000 rpm and 600 μL supernatant was taken out and stored at 4° C. for HPLC analysis.
Using the same HPLC fluorogenic quantitative detecting method as reference (Xiaodong Deng; Hong Sun; et al. Analytical Letters, 2012, 45:12, 1581-1589) to analysize samples obtained above. Analysize and record peak areas of C6-NBD-SM (Asm) and C6-NBD-Ceramide (Acer) of each sample from blank group, positive control group (compound D2) and under tested compound group. The data were parallelly determined for 3 times. Calculate inhibition rate from the formula below: […]
The DMSO stock solution of under tested compound (6 mM) was diluted stepwise into five concentration gradient. 10 μL solution of each concentration was added into the trial system to prepare samples with the method mentioned in the first step of application case 12. The Asm values of the five concentration solution of tested compound were measured, and the inhibition rate under the five concentration were calculated and fitted to obtain median inhibitory concentration (IC50). Each compound was measured three parallel groups. SMS2 median inhibitory concentration of Scheme I-1˜I-60 are listed below in Table 1: […]

[2] = system: SMS; details: reference value; read-out: IC50 (SMS inhibitory activity); cited from earlier work
[3] = five concentrations, three parallel groups, experimental value

## COc1ccc(C(=O)Nc2cccnc2)c(OCc2ccccc2Cl)c1 [Scheme I-60, 2-(2-chloro-benzyloxy)-4-methoxy-N-(pyridin-3-yl) benzamide]
other
  melting point: 129.2 to 131.9 °C
[1]; at 10 μM
  inhibition at 10 µM: 13.3%
[1]; [3]
  IC50: > 50 µM

## CCCCCCCOc1ccccc1COc1ccccc1C(=O)Nc1cccnc1 [Scheme I-38, 2-((2-heptyloxy)benzyloxy)-N-(pyridin-3-yl) benzamide]
[1]; at 10 μM
  inhibition at 10 µM: 90.5%
[1]; [3]
  IC50: 0.5 µM

## O=C(Nc1cccnc1)c1ccccc1OCc1cccc(Cl)c1F [Scheme I-18, 2-((2-fluoro-3-chloro)benzyloxy)-N-(pyridin-3-yl) benzamide]
[1]
  IC50: 3.1 µM
  inhibition at 5 µM: 55.2%

## O=C(O)COc1cccc(COc2ccccc2C(=O)Nc2cccnc2)c1 [Scheme I-48, 2-(3-((2-(pyridin-3-ylcarbamoyl)phenoxy)methyl)phenoxy) acetic acid]
[1]; at 10 μM
  inhibition at 10 µM: 3%
[1]; [3]
  IC50: > 100 µM

## Cc1c(Cl)cccc1COc1ccccc1C(=O)Nc1cccnc1 [Scheme I-44, 2-((3-chloro-2-methyl)benzyloxy)-N-(pyridin-3-yl) benzamide]
[1]; at 5 μM
  inhibition rate: 47.0%
[1]; [3]
  IC50: 3.8 µM

## 2-((2-nitro) benzyloxy)-N-(pyridin-3-yl) benzamide [Scheme I-12]
[1]; at 50 μM
  inhibition rate: 35.5%
[1]; [3]
  IC50: > 50 µM

## 2-((3-methoxy) benzyloxy)-N-(pyridin-3-yl) benzamide [Scheme I-23]
[1]; at 10 μM
  inhibition rate: 59.8%
[1]; [3]
  IC50: 5.7 µM

## COc1ccc(OCc2ccccc2Cl)c(C(=O)Nc2cccnc2)c1 [Scheme I-59, 2-(2-chloro-benzyloxy)-5-methoxy-N-(pyridin-3-yl) benzamide]
[1]; at 10 μM
  inhibition at 10 µM: 7.2%
[1]; [3]
  IC50: > 100 µM

## Cc1cccc(COc2ccccc2C(=O)Nc2cccnc2)c1 [Scheme I-10, 2-((3-methyl)benzyloxy)-N-(pyridin-3-yl) benzamide]
[1]; at 50 μM
  inhibition at 50 µM: 69.5%
[1]; [3]
  IC50: > 25 µM

## O=C(Nc1cncnc1)c1ccccc1OCc1ccccc1 [Scheme I-53, 2-benzyloxy-N-(pyrimidin-5-yl) benzamide]
other
  melting point: 112.3 to 114.9 °C
[1]; at 10 μM
  inhibition at 10 µM: 38.4%
[1]; [3]
  IC50: > 25 µM

## 2-((5-fluoro-2-methyl) benzyloxy)-N-(pyridin-3-yl) benzamide [Scheme I-21]
[1]; at 10 μM
  inhibition rate: 84.7%
[1]; [3]
  IC50: 0.7 µM

## O=C(Nc1cccnc1)c1ccc(Cl)cc1OCc1ccccc1Cl [Scheme I-56, 4-Chloro-2-(2-chloro-benzyloxy)-N-(pyridin-3-yl) benzamide]
[1]; at 10 μM
  inhibition at 10 µM: 20%
[1]; [3]
  IC50: > 50 µM

## O=C(Nc1cccnc1)c1cc(Cl)ccc1OCc1c(Cl)cccc1Cl [Scheme I-54, 5-chloro-2-((2,6-dichlorophenyl)benzyloxy)-N-(pyridin-3-yl) benzamide]
[1]; at 10 μM
  inhibition at 10 µM: 42.3%
[1]; [3]
  IC50: > 25 µM

## 2-((2,5-dimethoxy) benzyloxy)-N-(pyridin-3-yl) benzamide [Scheme I-25]
[1]; at 10 μM
  inhibition rate: 78.9%
[1]; [3]
  IC50: 2.8 µM

## O=C(Nc1cccnc1)c1ccccc1OCc1cccc2ccccc12 [Scheme I-45, 2-((naphthalen-1-yl)methoxy)-N-(pyridin-3-yl) benzamide]
other
  melting point: 91.4 to 93.9 °C
[1]; at 10 μM
  inhibition at 10 µM: 78%
[1]; [3]
  IC50: 2.6 µM

## O=C(Nc1cccnc1)c1ccccc1OCc1ccccc1OCCCCCl [Scheme I-34, 2-(2-(4-chlorobutoxy)benzyloxy)-N-(pyridin-3-yl) benzamide]
[1]; at 10 μM
  inhibition at 10 µM: 85.5%
[1]; [3]
  IC50: 1.4 µM

## Cc1ccccc1COc1ccccc1C(=O)Nc1cccnc1 [Scheme I-11, 2-((2-methyl)benzyloxy)-N-(pyridin-3-yl) benzamide]
[1]
  IC50: 1.5 µM
  inhibition at 5 µM: 71.3%

## O=C(Nc1cccnc1)c1ccccc1OCc1cc(Cl)ccc1OCCN1CCOCC1 [Scheme I-51, 2-((5-chloro-2-(2-morpholino-ethoxy))benzyloxy)-N-(pyridin-3-yl) benzamide]
[1]; at 10 μM
  inhibition at 10 µM: 24.9%
[1]; [3]
  IC50: > 50 µM

## S=C(S)OC1CC2CC1C1CCCC21 (stereo not drawn) [Scheme D609]
[2]
  IC50: 375 µM

## COCCOc1ccc(Cl)cc1COc1ccccc1C(=O)Nc1cccnc1 [Scheme I-50, 2-((5-chloro-2-(2-methoxyethoxy))benzyloxy)-N-(pyridin-3-yl) benzamide]
[1]; at 10 μM
  inhibition at 10 µM: 54.2%
[1]; [3]
  IC50: 11.6 µM

## 2-((4-cyano) benzyloxy)-N-(pyridin-3-yl) benzamide [Scheme I-15]
[1]; at 50 μM
  inhibition rate: 15.0%
[1]; [3]
  IC50: > 100 µM

## COc1ccc(COc2ccccc2C(=O)Nc2cccnc2)cc1 [Scheme I-5, 2-((4-methoxy)benzyloxy)-N-(pyridin-3-yl) benzamide]
[1]; at 50 μM
  inhibition at 50 µM: 23%
[1]; [3]
  IC50: > 100 µM

## CCCCCCOc1ccccc1COc1ccccc1C(=O)Nc1cccnc1 [Scheme I-37, 2-((2-hexyloxy)benzyloxy)-N-(pyridin-3-yl) benzamide]
[1]; at 10 μM
  inhibition rate: 90.2%
[1]; [3]
  IC50: 0.7 µM

## O=C(Nc1cccnc1)c1ccccc1OCc1c(Cl)cccc1Cl [Scheme I-17, 2-((2,6-dichlorophenyl)benzyloxy)-N-(pyridin-3-yl) benzamide]
[1]; at 5 μM
  inhibition at 5 µM: 77.2%
[1]; [3]
  IC50: 0.7 µM

## 2-(4-bromo-benzyloxy)-N-(pyridin-3-yl) benzamide [Scheme I-9]
[1]; at 50 μM
  inhibition rate: 14.7%
[1]; [3]
  IC50: > 100 µM

## 2-(3-cyano-benzyloxy)-N-(pyridin-3-yl) benzamide [Scheme I-4]
[1]; at 50 μM
  inhibition rate: 66.0%
[1]; [3]
  IC50: 60.7 µM

Reference: patent US10196359B2, “2-alkyloxy benzene formyl arylamine compound and pharmaceutical use thereof” (FUDAN UNIVERSITY, priority 2014, dated 2019)
